From PMC6471218, “Anti-Diabetic Activity of 2,3,6-Tribromo-4,5-Dihydroxybenzyl Derivatives from Symphyocladia latiuscula through PTP1B Downregulation and α-Glucosidase Inhibition” (Marine Drugs, 2019)
Like-named read-outs stand apart in the source and are kept apart here.

Assays:
[1] = system: insulin-resistant HepG2 cells; assay: 2-NBDG glucose uptake assay in insulin-resistant HepG2 cells; assay type: cell-based, human; settings: 24 h; for Insulin-stimulated glucose uptake compared with rosiglitazone 10 µM (112%): 20 µM
Description: Figure 8 Effect of bromophenols 1–3 on insulin-stimulated glucose uptake in insulin-resistant HepG2 cells. The glucose uptake assay was performed using the fluorescent D-glucose analogue 2-NBDG and 10^−6 mol/L insulin was to induce insulin resistance. Insulin-resistant HepG2 cells were treated with the indicated concentrations of test compounds or rosiglitazone for 24 h, and insulin-stimulated 2-NBDG uptake was measured. Values represent the mean ± standard deviation of triplicate experiments. ^a p < 0.01 indicates significant differences from the control group; ^b p < 0.05, ^c p < 0.01, and ^d p < 0.001 indicate significant differences from the insulin-resistant group.
(§1) HepG2 (human hepatocarcinoma) cells obtained from the American Type Culture Collection (HB-8065; Manassas, VA, USA) were maintained in 10% FBS MEM at 37 °C in a humidified atmosphere with 5% CO2. Cytotoxicity was evaluated using the MTT assay. Following previously described methods, an insulin-resistant HepG2 cell model was established. All other experimental conditions and procedures were similar to those reported in our previous paper.
The relative percent glucose uptake upon sample treatment in IR-HepG2 cells was evaluated by a flourimetric method using the fluorescent D-glucose analog 2-NBDG and measured on a fluorescence microplate reader (FL×800, Bio-Tek Instruments, Inc., Winooski, VT, USA) at 485 nm excitation and 528 nm emission wavelengths. Detailed experimental conditions and procedures are reported in our previous publication.

[2] = system: PTP1B expression in insulin-resistant HepG2 cells; assay: PTP1B expression level in insulin-resistant HepG2 cells (western blot); assay type: cell-based, human; settings: 24 h treatment, then 100 nM insulin 30 min
Description: Figure 9 Effects of bromophenol 1 (A), 2 (B), and 3 (C) on protein tyrosine phosphatase 1B (PTP1B) expression levels in insulin-resistant HepG2 cells. Western blotting was performed and protein band intensities were quantified by densitometric analysis. Upper panels display representative blots. Equal protein loading was ensured and normalized against β-actin levels. Values represent the mean ± standard deviation of three independent experiments; ^a p < 0.001 indicates significant differences from the control group; ^b p < 0.05, ^c p < 0.01, and ^d p < 0.001 indicate significant differences from the insulin-resistant group.
Insulin-resistant HepG2 cells were exposed to a range of concentrations of 1–3 or rosiglitazone (10 μM) in 24-well plates for 24 h followed by stimulation with 100 nM insulin diluted in SFMEM for 30 min. Cells were then washed twice with ice cold PBS, collected, and lysed with sample buffer. Protein was quantified by the modified Bradford protein assay kit using bovine serum albumin (BSA) as a standard, electrophoresed on sodium dodecyl sulfate-polyacrylamide gels (Bio-Rad, Hercules, CA, USA), and then transferred to polyvinylidene difluoride (PVDF) membranes (Immobilon-P; Millipore, Burlington, MA, USA) using the Pierce G2 Fast Blotter (Thermo Fisher Scientific Inc, USA) at 100 V for 60 min in a standard semi-dry system. […]

[3] = biological target: T1, yeast α-glucosidase (Saccharomyces cerevisiae, UniProt P53341); assay: Kinetic study against α-glucosidase (Lineweaver–Burk and Dixon plots); assay type: biochemical; settings: for α-Glucosidase Inhibition Type: determined from Lineweaver–Burk plots
T1 construct: purchased Sigma-Aldrich Co. (St. Louis, MO, USA)
T1 sequence (P53341 whole entry): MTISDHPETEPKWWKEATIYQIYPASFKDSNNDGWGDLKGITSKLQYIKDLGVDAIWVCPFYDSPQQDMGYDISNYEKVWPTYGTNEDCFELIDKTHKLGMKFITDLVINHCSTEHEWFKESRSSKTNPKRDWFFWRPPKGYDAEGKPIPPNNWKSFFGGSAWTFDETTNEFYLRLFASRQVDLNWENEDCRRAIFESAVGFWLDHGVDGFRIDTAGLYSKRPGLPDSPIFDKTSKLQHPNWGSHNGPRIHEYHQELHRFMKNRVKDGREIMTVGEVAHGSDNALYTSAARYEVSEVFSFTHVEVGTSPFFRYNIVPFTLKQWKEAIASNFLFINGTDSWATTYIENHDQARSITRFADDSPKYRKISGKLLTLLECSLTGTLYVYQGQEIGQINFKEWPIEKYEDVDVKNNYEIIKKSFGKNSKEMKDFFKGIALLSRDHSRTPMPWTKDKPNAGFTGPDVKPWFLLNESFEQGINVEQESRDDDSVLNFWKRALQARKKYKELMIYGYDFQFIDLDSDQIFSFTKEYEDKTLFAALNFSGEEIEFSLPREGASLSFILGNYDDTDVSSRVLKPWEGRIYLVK
Description: (§2) In competitive inhibition mode (Figure 2C), double reciprocal plots yielded a group of lines with the same y-intercept (constant Vmax) but different x-intercepts (varying Km values). […] The double reciprocal plots of α-glucosidase enzyme inhibition by 3 yielded a group of lines intersecting at a single point in the second quadrant.
(§3) The modes of enzyme inhibition were evaluated by monitoring the effects of different concentrations of the substrates (1, 2, or 4 mM pNPP for PTP1B and 1.25, 2.5, or 5 mM pNPG for α-glucosidase) on Dixon plots (single reciprocal plots). […] The enzymatic procedure consisted of the same aforementioned assay method. The inhibition constants (Ki) were determined by interpreting Dixon plots, where the value of the x-intercept indicated the value of −Ki.

[4] = biological target: T2, Human recombinant protein tyrosine phosphatase (PTP1B) (Homo sapiens, UniProt P18031); assay: PTP1B inhibitory assay with pNPP substrate; assay type: biochemical
T2 sequence (P18031 1-435): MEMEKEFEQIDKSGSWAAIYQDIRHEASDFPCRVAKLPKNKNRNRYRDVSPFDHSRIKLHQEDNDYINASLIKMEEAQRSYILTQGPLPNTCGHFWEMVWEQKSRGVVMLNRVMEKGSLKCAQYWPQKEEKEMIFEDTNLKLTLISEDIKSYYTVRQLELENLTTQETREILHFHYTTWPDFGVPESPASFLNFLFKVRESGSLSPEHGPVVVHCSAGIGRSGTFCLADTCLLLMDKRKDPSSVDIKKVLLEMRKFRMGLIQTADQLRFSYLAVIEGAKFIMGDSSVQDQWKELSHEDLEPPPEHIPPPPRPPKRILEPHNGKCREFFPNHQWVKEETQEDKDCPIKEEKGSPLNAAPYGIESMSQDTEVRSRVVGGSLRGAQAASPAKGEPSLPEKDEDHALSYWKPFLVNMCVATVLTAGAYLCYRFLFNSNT
Text: (§4) The initial step in evaluating anti-diabetic secondary metabolites from Symphyocladia latiuscula was the evaluation of PTP1B and α-glucosidase inhibition potentials of methanol extract and fractions obtained by MeOH extract partition with different solvents using pNPP and pNPG as substrates, respectively. Enzyme inhibition levels are expressed as mean IC50 values with standard deviation.
(§5) Human recombinant protein tyrosine phosphatase (PTP1B) was purchased from Biomol International LP (Plymouth Meeting, PA, USA). Fetal bovine serum (FBS), minimum essential medium (MEM), sodium pyruvate, penicillin-streptomycin, and nonessential amino acids were purchased from Gibco-BRL Life Technologies (Grand Island, NY, USA). The fluorescent D-glucose analogue and 2-NBDG was purchased from Life Technologies (Carlsbad, CA, USA). Human insulin was purchased from Eli Lilly (Fegersheim, France). All other chemicals and solvents used were of reagent grade and acquired from commercial sources.
The potential for MeOH extract, solvent-soluble fractions, and isolated compounds to inhibit PTP1B enzyme activity was evaluated using the pNPP substrate. Experimental conditions and laboratory procedures were similar to those published in our previous report.

[5] = biological target: α-glucosidase; set-up: method as in ref 24, 34 (Kurihara et al.); settings: different enzyme and pNPG concentrations; 34 (Kurihara et al.); read-out: 50% α-glucosidase enzyme inhibition concentration (literature); cited from earlier work
[6] = biological target: T2, Human recombinant protein tyrosine phosphatase (PTP1B); assay: Kinetic study against PTP1B (Lineweaver–Burk and Dixon plots); assay type: biochemical; settings: for PTP1B Inhibition Type: determined from Lineweaver–Burk plots
Description: as §2, §3

[7] = biological target: T1, yeast α-glucosidase; assay: biochemical; assay type: biochemical; settings: for Enhancement of α-glucosidase inhibitory activity compared to 2: ratio of IC50 values
Text: as §4, §5
The α-glucosidase inhibition assay procedure, previously reported by Li et al., was followed to measure the release of […] at 405 nm using a microplate spectrophotometer (Molecular Devices).

[8] = system: PTP1B; set-up: method as in ref 35 (Liu et al.); settings: ref 35 (Liu et al.); read-out: PTP1B IC50 (literature); cited from earlier work
[9] = system: HepG2 cells; assay: MTT cytotoxicity assay in HepG2 cells; assay type: cell-based, human; settings: 25, 50 and 100 μM, 24 h
Description: Cytotoxicity of bromophenols on HepG2 cells was evaluated using a 3-(4,5-dimethylthiazol-2-yl)-2,5-diphenyl tetrazolium bromide (MTT) assay. […] So, considering enzyme inhibition activity and toxicity in HepG2 cells, we performed cell-based experiments at 5, 10, and 20 µM concentrations.
Figure 7 Effect of bromophenols 1–3 on cell viability in HepG2 cells. Cell viability was determined using the 3-(4,5-dimethylthiazol-2-yl)-2,5-diphenyl tetrazolium bromide (MTT) method. Cells were pretreated with the indicated concentrations (25, 50, and 100 μM) of test compounds for 24 h. Data shown represent mean ± standard deviation of triplicate experiments. ^a p < 0.05 indicates significant differences from the control group.
as §1

CN(CCOc1ccc(CC2SC(=O)NC2=O)cc1)c1ccccn1 (stereo not drawn) [Rosiglitazone, rosiglitazone, reference compound]
Insulin-stimulated glucose uptake (2-NBDG) ([1]; 10 µM, relative to normal control): 112%

Oc1c(O)c(Br)c(COCc2c(Br)c(O)c(O)c(Br)c2Br)c(Br)c1Br [Compound 3, Bis-(2,3,6-tribromo-4,5-dihydroxybenzylmethyl ether)]
Effect on PTP1B expression level [2]: excellent ability to reduce PTP1B expression level
Ki ([3]; determined from Dixon plots, read-out: α-Glucosidase Ki): 210 nM
α-Glucosidase Inhibition Type [3]: Mixed-type
Insulin-stimulated glucose uptake compared with rosiglitazone 10 µM ([1]; 10 µM): greater effect than rosiglitazone
IC50 ([4]; mean ± SD, n = 3, read-out: PTP1B IC50): 5290 ± 80 nM
IC50 [5]: 30 nM
Ki ([6]; determined from Dixon plots, read-out: PTP1B Ki): 2250 nM
PTP1B Inhibition Type [6]: Competitive
IC50 ([7]; mean ± SD, n = 3, read-out: α-Glucosidase IC50): 1920 ± 20 nM
Enhancement of α-glucosidase inhibitory activity compared to 2 [7]: 3.8 fold

COCc1c(Br)c(O)c(O)c(Br)c1Br [Compound 2, 2,3,6-Tribromo-4,5-dihydroxybenzyl methyl ether]
Ki [3]: 5540 nM
α-Glucosidase Inhibition Type [3]: Noncompetitive
IC50 [8]: 3900 nM
Cytotoxicity (cell viability, MTT) in HepG2 cells [9]: did not show toxicity until they were used at a concentration of 100 μM
Insulin-stimulated glucose uptake compared with rosiglitazone 10 µM (112%) [1]: comparable
IC50 [4]: 8500 ± 450 nM
Ki [6]: 2400 nM
PTP1B Inhibition Type [6]: Mixed-type
IC50 [7]: 7240 ± 20 nM

OCc1c(Br)c(O)c(O)c(Br)c1Br [Compound 1, 2,3,6-Tribromo-4,5-dihydroxybenzyl alcohol]
Ki [3]: 1920 nM
α-Glucosidase Inhibition Type [3]: Noncompetitive
Cytotoxicity (cell viability, MTT) in HepG2 cells [9]: slightly toxic effect at 100 μM
Insulin-stimulated glucose uptake compared with rosiglitazone 10 µM (112%) [1]: comparable
IC50 [4]: 7740 ± 140 nM
IC50 [5]: 11000 nM
Ki [6]: 1190 nM
PTP1B Inhibition Type [6]: Mixed-type
IC50 [7]: 2630 ± 110 nM
Enhancement of α-glucosidase inhibitory activity compared to 2 [7]: 2.5 fold
